In assay [1] the target is T1, human DGKζ (Homo sapiens (Human), UniProt Q13574). As to the kind of experiment: DGKζ LIPGLO assay (extruded liposome substrate). Conditions: extruded liposome substrate; read-out: DGKζ LIPGLO IC50. The format is biochemical. A digest of the protocol:
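Sf9-derived DGKζ was premixed 10 min with PC/DAG/PS liposomes (100 nm extruded) in MOPS pH 7.5 buffer containing NaCl, MgCl2, CaCl2 and DTT.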

In another assay the test system is naïve human CD8 T cells. As to the kind of experiment: cells. The settings on record: Homo sapiens, T-cell, read-out: HuCD8 INFG Normalized EC50, anti-CD3 plus anti-CD28 as baseline; 3 μM Example 40 co-stimulation as 100% activation. As for the experimental part: Frozen naïve human CD8 T cells were thawed in ATM-V media, incubated for 2 h in 37° C., and counted. The 384-well tissue culture plate was coated overnight at 4° C. with 20 μl anti-human CD3 at 0.05 μg/mL in PBS, which was removed off the plate before 40,000 cells per 40 microliters CD8 T cells with 0.1 μg/mL soluble anti-human CD28 were added to each well. The compounds were transferred using an Echo liquid handler to the cell plate immediately after the cells were plated. After 20 h incubation at 37° C. incubator, 3 microliters per well supernatants transferred into a new 384-well white assay plate for cytokine measurement.
Interferon-γ (IFN-γ) was quantitated using the AlphaLISA kit (Cat #AL217) as described by the manufacturer manual (Perkin Elmer). The counts from each well were converted to IFN-γ concentration […].

Assay [2] has as its target T2, human DGKα (Homo sapiens (Human), UniProt P23743). As to the kind of experiment: DGKα LIPGLO assay (extruded liposome substrate). The format is biochemical. A digest of the protocol:
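Human full-length DGKα, His-tagged and produced in Sf9 cells, assayed at 20 nM (4× stock) on extruded liposomes of PS, 0.25 mM DAG and 2.75 mM PC, preincubated 10 min. Reaction started with 300 μM ATP (stock) and ran 1 h in MOPS pH 7.5/MgCl2/CaCl2/DTT buffer.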

Assay [3] deals with pre-activated CD4 T cells and Raji cells. As to the kind of experiment: Raji CD4 T Cell IL2 Assay. The assay is classed as cell-based. The settings on record: Homo sapiens, Raji.
Assay [4] concerns the target T2, human DGKα. As to the kind of experiment: biochemical. The settings on record: detergent/lipid micelle substrate; read-out: DGKα IC50. In outline:
(§1)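 Enzymes were baculovirus/Sf9 full-length human DGKα or DGKζ with His tag. The substrate was PS/DAG in octyl glucoside micelles, in MOPS pH 7.5 buffer with NaCl, MgCl2, CaCl2 and DTT.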

Assay [5] deals with T1, human DGKζ. As to the kind of experiment: DGKζ assay (detergent/lipid micelle substrate). The assay is classed as biochemical. Conditions: detergent/lipid micelle substrate; read-out: DGKζ IC50. A digest of the protocol: as §1
Assay [6] concerns Jurkat AP1-luciferase Reporter. As to the kind of experiment: DGK AP1-Reporter Assay. The settings on record: Homo sapiens, Jurkat, read-out: API-Luciferase Reporter IC50, Table 3. The assay is classed as cell-based. As for the experimental part: The Jurkat AP1-luciferase Reporter was generated using the Cignal Lenti AP1 Reporter (luc) Kit from SABiosciences (CLS-011L).
The sample size was 30 nl per well; and one destination plate per source plate. The cell suspensions were prepared by transferring 40 mL cells (2×20 mL) to clean 50 mL conical tubes. The cells were concentrated by centrifugation (1200 rpm; 5 mins; ambient temperature). […] The cell plates were incubated for 20 minutes at 37° C., and 5% CO2.
During the incubation, anti-CD3 antibody (αCD3) solutions were prepared by mixing 3 μl αCD3 (1.3 mg/mL) with 10 mL medium [final conc=0.4 μg/mL]. Next, 1.5 μl αCD3 (1.3 mg/mL) was mixed with 0.5 mL medium [final conc=4 μg/mL]. After 20 minutes, 10 μl medium was added to all wells in column 1, wells A to M, and 10 μl αCD3 (4 μg/mL) per well was added in column 1, rows N to P for reference. Then using a multi-channel pipette, 10 μl αCD3 (0.4 μg/mL) per well was added. The αCD3 stimulated +/− compound-treated cells were incubated at 37° C., 5% CO2 for 6 hours.
During this incubation period. Steady-Glo (Promega E2520) reagent was slowly thawed on to ambient temperature. Next, 20 μl Steady-Glo reagent per well was added using a multi-drop Combi-dispenser. Bubbles were removed by centrifugation (2000 rpm, ambient temperature, 10 sees). The cells were incubated at room temperature for 5 minutes. Samples were characterized by measuring the Relative Light Units (RLU) with an using Envision Plate Reader Instrument on a luminescence protocol.
For orientation: A reporter such as luciferase makes a cellular process visible.

Values joined by “and” are separate entries in the source; they are usually repeats but may differ in a detail not shown here. Equal entries are not always repeated.

T1 sequence (Q13574 other isoform, or with tags, fused parts or gaps): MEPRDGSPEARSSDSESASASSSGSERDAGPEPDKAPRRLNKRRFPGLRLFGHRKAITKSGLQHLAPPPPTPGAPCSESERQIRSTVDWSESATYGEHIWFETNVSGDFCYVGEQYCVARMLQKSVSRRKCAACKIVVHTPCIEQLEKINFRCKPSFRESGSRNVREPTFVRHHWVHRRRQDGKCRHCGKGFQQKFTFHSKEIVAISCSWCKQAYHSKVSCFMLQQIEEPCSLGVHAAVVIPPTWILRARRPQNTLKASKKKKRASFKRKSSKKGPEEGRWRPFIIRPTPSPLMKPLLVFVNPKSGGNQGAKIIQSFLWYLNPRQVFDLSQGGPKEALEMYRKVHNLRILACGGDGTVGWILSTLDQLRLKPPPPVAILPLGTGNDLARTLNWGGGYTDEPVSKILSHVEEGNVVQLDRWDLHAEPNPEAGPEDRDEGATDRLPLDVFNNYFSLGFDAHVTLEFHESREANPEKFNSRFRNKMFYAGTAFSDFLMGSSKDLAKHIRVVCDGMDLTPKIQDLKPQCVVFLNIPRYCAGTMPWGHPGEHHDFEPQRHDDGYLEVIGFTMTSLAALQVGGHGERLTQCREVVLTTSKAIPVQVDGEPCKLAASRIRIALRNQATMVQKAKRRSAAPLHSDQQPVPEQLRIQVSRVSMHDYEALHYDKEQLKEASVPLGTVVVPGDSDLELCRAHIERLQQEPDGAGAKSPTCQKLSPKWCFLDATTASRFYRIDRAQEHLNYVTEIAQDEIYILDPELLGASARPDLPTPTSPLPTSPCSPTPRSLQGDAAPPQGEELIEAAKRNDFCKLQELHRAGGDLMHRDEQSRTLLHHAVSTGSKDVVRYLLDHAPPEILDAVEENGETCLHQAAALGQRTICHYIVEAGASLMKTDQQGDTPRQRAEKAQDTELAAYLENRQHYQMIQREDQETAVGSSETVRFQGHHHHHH
T2 sequence (P23743 other isoform, or with tags, fused parts or gaps): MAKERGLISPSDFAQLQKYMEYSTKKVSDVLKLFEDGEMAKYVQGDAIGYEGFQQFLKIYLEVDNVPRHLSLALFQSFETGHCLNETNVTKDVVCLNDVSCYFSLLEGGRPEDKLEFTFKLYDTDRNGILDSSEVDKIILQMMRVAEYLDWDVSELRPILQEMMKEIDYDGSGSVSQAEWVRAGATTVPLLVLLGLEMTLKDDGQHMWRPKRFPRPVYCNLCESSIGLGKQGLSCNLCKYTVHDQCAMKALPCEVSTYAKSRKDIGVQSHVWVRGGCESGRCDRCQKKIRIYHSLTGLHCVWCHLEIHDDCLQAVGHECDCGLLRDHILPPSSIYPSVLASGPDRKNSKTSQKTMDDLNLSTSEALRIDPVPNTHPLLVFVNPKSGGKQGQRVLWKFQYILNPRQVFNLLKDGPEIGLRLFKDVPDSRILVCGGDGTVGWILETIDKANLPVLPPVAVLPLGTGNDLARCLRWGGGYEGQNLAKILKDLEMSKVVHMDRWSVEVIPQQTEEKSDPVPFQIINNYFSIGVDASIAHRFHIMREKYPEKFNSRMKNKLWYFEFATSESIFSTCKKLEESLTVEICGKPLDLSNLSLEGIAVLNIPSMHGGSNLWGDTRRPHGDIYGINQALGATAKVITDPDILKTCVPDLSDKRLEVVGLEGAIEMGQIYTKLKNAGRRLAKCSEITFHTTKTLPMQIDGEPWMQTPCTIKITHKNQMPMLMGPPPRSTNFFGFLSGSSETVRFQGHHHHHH

As to `CCC(c1ccc(F)cc1)N1CCN(c2c(C#N)c(=O)n(C)c3ccc(C)nc23)CC1` (racemic) [Example 398, 4-{4-[1-(4-fluorophenyl)propyl]piperazin-1-yl}-1,6-dimethyl-2-oxo-1,2-dihydro-1,5-naphthyridine-3-carbonitrile], the 50% inhibitory concentration (IC50) (commonly the concentration needed to halve the response being measured) at human DGKζ [1] is > 240 µM and 49 µM. For the same compound, the EC50 (commonly the midpoint of the concentration-response curve) in the assay with naïve human CD8 T cells was 1.21 µM.

In the case of `Cn1c(=O)c(C#N)c(N2CCN(C(c3ccccc3)c3ccc(Cl)cc3)CC2)c2nc(Br)ccc21` (racemic) [Example 429, 6-bromo-4-{4-[(4-chlorophenyl)(phenyl)methyl]piperazin-1-yl}-1-methyl-2-oxo-1,2-dihydro-1,5-naphthyridine-3-carbonitrile], the results for the IC50 on human DGKζ [1] and against human DGKα [2] were 9.4 µM and 1.8 µM, respectively. Moreover, in the assay on naïve human CD8 T cells, the concentration for a half-maximal effect (EC50) stood at 0.08 µM.

For `Cn1c(=O)c(C#N)c(N2CCN(C(c3ccccc3)c3ccc(F)cc3)CC2)c2nc(Br)ccc21` (racemic) [Example 430, 6-bromo-4-{4-[(4-fluorophenyl)(phenyl)methyl]piperazin-1-yl}-1-methyl-2-oxo-1,2-dihydro-1,5-naphthyridine-3-carbonitrile], the IC50 was found to be 3 µM on human DGKζ [1] and 1.9 µM at human DGKα [2]. The EC50 with naïve human CD8 T cells came to 0.3 µM.

Take `COc1ccc2c(n1)c(N1CCN(C(c3ccc(F)cc3)c3ccc(F)cc3OC)CC1)c(C#N)c(=O)n2C` (single isomer, unassigned) [Example 413, 4-{4-[(4-fluoro-2-methoxyphenyl)(4-fluorophenyl)methyl]piperazin-1-yl}-6-methoxy-1-methyl-2-oxo-1,2-dihydro-1,5-naphthyridine-3-carbonitrile]: the half-inhibitory concentration (IC50) is 0.97 µM on human DGKζ [1] and 3.3 µM against human DGKα [2]. For the same compound, the half-maximal effective concentration (EC50) in the assay with naïve human CD8 T cells amounted to 0.04 µM.

On to `COc1cc(F)ccc1C(c1ccc(F)cc1OC)N1CCN(c2c(C#N)c(=O)n(C)c3ccc(C)nc23)CC1` [Example 251, 4-{4-[bis(4-fluoro-2-methoxyphenyl)methyl]piperazin-1-yl}-1,6-dimethyl-2-oxo-1,2-dihydro-1,5-naphthyridine-3-carbonitrile], for which the IC50 on human DGKζ [1] is 9 µM; on human DGKα [2], above 240 µM. Moreover, the EC50 in the assay on naïve human CD8 T cells stood at 0.58 µM.

For the compound `COCCC(C)N1CCN(c2c(C#N)c(=O)n(C)c3ccc(C)nc23)CC1` (stereo not shown) [Example 252, 4-[4-(4-methoxybutan-2-yl)piperazin-1-yl]-1,6-dimethyl-2-oxo-1,2-dihydro-1,5-naphthyridine-3-carbonitrile], the values for the 50% inhibitory concentration (IC50) at human DGKζ [1] and at human DGKα [2] were 200 µM and above 240 µM, respectively. Moreover, in the assay on naïve human CD8 T cells, the half-maximal effective concentration (EC50) worked out at 10 µM.

In the case of `Cc1ccc2c(n1)c(N1CCN(C3CCOc4ccccc43)CC1)c(C#N)c(=O)n2C` (stereo not shown) [Example 253, 4-[4-(3,4-dihydro-2H-1-benzopyran-4-yl)piperazin-1-yl]-1,6-dimethyl-2-oxo-1,2-dihydro-1,5-naphthyridine-3-carbonitrile], the half-maximal inhibitory concentration (IC50) stood at 7.4 µM at human DGKζ [1] and 40 µM on human DGKα [2]. For the same compound, the half-maximal effective concentration (EC50) in the assay with naïve human CD8 T cells came out at 2.51 µM.

On to `Cc1ccc2c(n1)c(N1CCN(C(c3ccc(F)cc3)c3ccccn3)CC1)c(C#N)c(=O)n2C` (stereo not shown) [Example 256, 4-{4-[(4-fluorophenyl)(pyridin-2-yl)methyl]piperazin-1-yl}-1,6-dimethyl-2-oxo-1,2-dihydro-1,5-naphthyridine-3-carbonitrile], for which the results for the IC50 at human DGKζ [1] and on human DGKα [2] were 10 µM and 2.7 µM, respectively. Moreover, in the assay on naïve human CD8 T cells, the EC50 is 0.24 µM.

Regarding `Cn1c(=O)c(C#N)c(N2CCN(Cc3cccc4cc[nH]c34)CC2)c2nc(Br)ccc21` [Example 373, 6-bromo-4-{4-[(1H-indol-7-yl)methyl]piperazin-1-yl}-1-methyl-2-oxo-1,2-dihydro-1,5-naphthyridine-3-carbonitrile], the 50% inhibitory concentration (IC50) in assay [3] is above 100 µM; on human DGKα [4], 2.5 µM; on human DGKζ [5], 100 µM; in assay [6], 0.26 µM.

For the compound `Cn1c(=O)c(C#N)c(N2CCN(C(c3ccc(Cl)cc3)c3ccc(Cl)cc3)CC2)c2nc(Br)ccc21` [Example 393, 4-{4-[bis(4-chlorophenyl)methyl]piperazin-1-yl}-6-bromo-1-methyl-2-oxo-1,2-dihydro-1,5-naphthyridine-3-carbonitrile], the IC50 on human DGKζ [1] was above 240 µM; on human DGKα [2], 9 µM. Also, in the assay with naïve human CD8 T cells, the half-maximal effective concentration (EC50) stood at 0.17 µM.

Regarding `Cn1c(=O)c(C#N)c(N2CCN(C(c3ccc(Cl)cc3)c3ccc(Cl)cc3)CC2)c2nc(C#N)ccc21` [Example 394, 8-{4-[bis(4-chlorophenyl)methyl]piperazin-1-yl}-5-methyl-6-oxo-5,6-dihydro-1,5-naphthyridine-2,7-dicarbonitrile], the IC50 on human DGKζ [1] was found to be 1.2 µM; against human DGKα [2] it was 3.9 µM. Also, the concentration giving a half-maximal response (EC50) in the assay on naïve human CD8 T cells was 0.01 µM.

In the case of `COc1ccc2c(n1)c(N1CCN(C(c3ccc(Cl)cc3)c3ccc(Cl)cc3)CC1)c(C#N)c(=O)n2C` [Example 395, 4-{4-[bis(4-chlorophenyl)methyl]piperazin-1-yl}-6-methoxy-1-methy-2-oxo-1,2-dihydro-1,5-naphthyridine-3-carbonitrile], the IC50 was 3 µM on human DGKζ [1] and 14 µM against human DGKα [2]. In the assay with naïve human CD8 T cells, the EC50 was found to be 0.09 µM.

For `COc1ccc2c(n1)c(N1CCN(C(c3ccc(F)cc3)c3cccnc3OC)CC1)c(C#N)c(=O)n2C` (stereo not shown) [Example 396, 4-{4-[(4-fluorophenyl)(2-methoxypyridin-3-yl)methyl]piperazin-1-yl}-6-methoxy-1-methyl-2-oxo-1,2-dihydro-1,5-naphthyridine-3-carbonitrile], the results for the IC50 on human DGKζ [1] and on human DGKα [2] were 5.8 µM and 21 µM, respectively. The EC50 in the assay with naïve human CD8 T cells worked out at 2.66 µM.

`COc1ccc2c(n1)c(N1CCN(C(c3ccc(F)cc3)c3ncccc3OC)CC1)c(C#N)c(=O)n2C` (stereo not shown) [Example 397, 4-{4-[(4-fluorophenyl)(3-methoxypyridin-2-yl)methyl]piperazin-1-yl}-6-methoxy-1-methyl-2-oxo-1,2-dihydro-1,5-naphthyridine-3-carbonitrile]: the IC50 came out at 13 µM on human DGKζ [1] and 16 µM at human DGKα [2]. Further, the concentration for a half-maximal effect (EC50) in the assay on naïve human CD8 T cells was found to be 4.47 µM.

In the case of `Cn1c(=O)c(C#N)c(N2CCN(C(c3ccc(F)cc3)c3ccccn3)CC2)c2nc(C#N)ccc21` (stereo not shown) [Example 400, 8-{4-[(4-fluorophenyl)(pyridin-2-yl)methyl]piperazin-1-yl}-5-methyl-6-oxo-5,6-dihydro-1,5-naphthyridine-2,7-dicarbonitrile], the concentration for half-maximal inhibition (IC50) at human DGKζ [1] is 2.1 µM; at human DGKα [2], 5.4 µM. For the same compound, the EC50 in the assay with naïve human CD8 T cells was 0.05 µM.

For `Cn1c(=O)c(C#N)c(N2CCN(Cc3c(F)cccc3F)CC2)c2nc(Cl)ccc21` [Example 422, 6-chloro-4-{4-[(2,6-difluorophenyl)methyl]piperazin-1-yl}-1-methyl-2-oxo-1,2-dihydro-1,5-naphthyridine-3-carbonitrile], the IC50 was above 100 µM in assay [3], 1.4 µM on human DGKα [4], above 240 µM on human DGKζ [5] and 3.49 µM in assay [6].

These data come from patent publication US11866430B2, “Naphthyridinone compounds useful as T cell activators” (priority 2018, dated 2024).
